Assay results reported in patent publication US20020016299A1, “APOPTOSIS INDUCERS” (priority 1996, published 2002).
*1 amine or outer side, *2 acyl side, *3 side chain or, on linkers, in order; H or OH if unused. Where a SMILES comes first, the peptide text is derived from it. Bridges are numbered along the chain shown (N, C = ends). Roman numbers before positions name the chains, in order. [ ]: non-standard residue; d: D form. Actinocin(9to1) = Cc1c2oc3c(C)ccc(C(=O)[*:1])c3nc-2c(C(=O)[*:2])c(N)c1=O; NMeV = CN[C@H](C(=O)O)C(C)C; Sar = CNCC(=O)O

Tested on: HL-60 (ATCC CL-240)
Experiment: Apoptosis inducing activity: microscope observation and living cell count of HL-60 culture
Format: cell-based
Settings: HL-60 cells; for activity of suppressing the growth of cancer cells: method of Example 1-(4)
Description: Apoptosis inducing activity of the above fraction B and the pure product mentioned in Example 1-(3) was measured as follows. Thus, 0.5 ml of aqueous solution of the fraction B or of said pure product was added to 2.5×10^5 cells/4.5 ml of HL-60 (ATCC CL-240) cultured in an RPMI 1640 medium containing 10% of fetal calf serum and incubated at 37° C. for 48 hours. At the same time, distilled water and an Actinomycin D solution (10 μg/ml) which was known to have an apoptosis inducing activity were added to prepare control samples. Formation of apoptic bodies, contraction of cells and aggregation of nuclei were observed by naked eye under a microscope whereby the living cell numbers were counted. When such phenomena were observed and a reduction in living cell numbers was recognized, it was decided that an apoptosis inducing activity was positive.
Each of the concentrated extracts of Lyophyllum ulmarium was diluted with a 75% or 50% aqueous solution of ethanol. The diluted solution was assayed by an MTT method mentioned in Example 7. […] Thus, it was confirmed that, under the conditions of extracting with a 75% aqueous solution of ethanol and a 50% aqueous solution of ethanol, substances which are active for suppressing the growth of cancer cells were extracted. Further, an apoptosis inducing activity was measured using those concentrated extracts of Lyophyllum ulmarium. Thus, 25 μl of each of the above-mentioned concentrated extracts was used as a sample, ethanol was evaporated therefrom, the residue was added to 2.5×10^5 HL-60 cells/4.5 ml which were incubated in an RPMI 1640 medium containing 10% of fetal calf serum and incubation was conducted at 37° C. for 48 hours. At the same time, control samples were prepared by adding distilled water and an Actinomycin D solution (10 μg/ml) which was known to have an apoptosis inducing activity. Formation of apoptic bodies, contraction of cells and aggregation of nuclei were observed by naked eye under an optical microscope and the numbers of living cells were counted. When such a phenomenon was observed and a reduction in living cell numbers was noted, the sample was judged to have an apoptosis inducing activity.

[1] = 37° C., 48 hours, apoptic bodies, contraction of cells, aggregation of nuclei and reduction in living cell numbers

Compound | apoptosis inducing activity (Actinomycin D solution (10 μg/ml) added as control sample) | activity of suppressing the growth of cancer cells (37° C., 48 hours) | apoptosis inducing activity [1]
Cc1c2oc3c(C)ccc(C(=O)N[C@@H]4C(=O)N[C@H](C(C)C)C(=O)N5CCC[C@H]5C(=O)N(C)CC(=O)N(C)[C@@H](C(C)C)C(=O)O[C@@H]4C)c3nc-2c(C(=O)N[C@@H]2C(=O)N[C@H](C(C)C)C(=O)N3CCC[C@H]3C(=O)N(C)CC(=O)N(C)[C@@H](C(C)C)C(=O)O[C@@H]2C)c(N)c1=O [Actinomycin D, reference compound] (I: T[dV]P[Sar][NMeV] / II: T[dV]P[Sar][NMeV]; ester I:1-I:C, II:1-II:C; linker I:N-II:N via Actinocin(9to1)) | apoptosis inducing activity was confirmed |  | 
Monogalactosyl diglyceride |  | confirmed | strong apoptosis inducing action
digalactosyl diglyceride |  | confirmed | strong apoptosis inducing action
monogalactosyl diglyceride |  | confirmed | strong apoptosis inducing action
